Earlier results on two compounds are cited in article PMC6832352, “Synthesis and Glycosidase Inhibition of Broussonetine M and Its Analogues” (Molecules, 2019).

As a reminder, the IC50 is the concentration that gives 50% inhibition.

Structures are written as SMILES. A value given as a limit tells only on which side of the number the result lay.

Data set [1] deals with T1, α-Glucosidase (Saccharomyces cerevisiae, UniProt P53341).
T1 construct: purchased Sigma-Aldrich Chemical Co
Conditions: Yeast; cited from earlier work.

Data set [2] addresses T2, α-Glucosidase (Oryza sativa subsp. japonica, UniProt Q653V7).
T2 construct: purchased Sigma-Aldrich Chemical Co
To be noted: Rice; cited from earlier work.

Data set [3] deals with β-Glucosidase. To be noted: Almond; cited from earlier work.
The target in data set [4] is T3, β-Glucosidase (Bos taurus, UniProt F1MNT6).
T3 sequence (F1MNT6 1-469): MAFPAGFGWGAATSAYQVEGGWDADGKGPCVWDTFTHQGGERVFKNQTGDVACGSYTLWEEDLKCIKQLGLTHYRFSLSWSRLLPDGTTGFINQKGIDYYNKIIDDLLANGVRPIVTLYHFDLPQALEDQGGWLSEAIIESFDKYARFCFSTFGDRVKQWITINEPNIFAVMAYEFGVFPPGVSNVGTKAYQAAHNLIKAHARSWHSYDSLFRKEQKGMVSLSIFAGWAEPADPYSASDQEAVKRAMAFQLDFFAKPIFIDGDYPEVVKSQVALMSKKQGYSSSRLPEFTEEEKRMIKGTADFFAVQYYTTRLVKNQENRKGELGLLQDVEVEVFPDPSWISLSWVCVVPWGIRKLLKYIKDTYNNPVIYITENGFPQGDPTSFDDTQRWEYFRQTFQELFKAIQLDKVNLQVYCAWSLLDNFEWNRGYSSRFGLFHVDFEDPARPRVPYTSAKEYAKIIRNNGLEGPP
To be noted: Bovine liver, cited from earlier work.

Data set [5] concerns the target T4, α-Galactosidase (Coffea arabica, UniProt Q42656).
T4 construct: purchased Sigma-Aldrich Chemical Co
To be noted: Coffee beans, cited from earlier work; for inhibition %: at 1000 μM (per NI footnote).

The subject of data set [6] is β-Galactosidase. To be noted: β-Galactosidase, Bovine liver, cited from earlier work; for inhibition %: at 1000 μM (per NI footnote).
In data set [7] the target is β-Mannosidase. To be noted: Snail, cited from earlier work; for inhibition %: at 1000 μM (per NI footnote).
For data set [8], the target named is T5, α-L-Fucosidase (Bos taurus, UniProt Q2KIM0).
T5 construct: purchased Sigma-Aldrich Chemical Co; host or cells: bovine kidney
T5 sequence (Q2KIM0 23-468): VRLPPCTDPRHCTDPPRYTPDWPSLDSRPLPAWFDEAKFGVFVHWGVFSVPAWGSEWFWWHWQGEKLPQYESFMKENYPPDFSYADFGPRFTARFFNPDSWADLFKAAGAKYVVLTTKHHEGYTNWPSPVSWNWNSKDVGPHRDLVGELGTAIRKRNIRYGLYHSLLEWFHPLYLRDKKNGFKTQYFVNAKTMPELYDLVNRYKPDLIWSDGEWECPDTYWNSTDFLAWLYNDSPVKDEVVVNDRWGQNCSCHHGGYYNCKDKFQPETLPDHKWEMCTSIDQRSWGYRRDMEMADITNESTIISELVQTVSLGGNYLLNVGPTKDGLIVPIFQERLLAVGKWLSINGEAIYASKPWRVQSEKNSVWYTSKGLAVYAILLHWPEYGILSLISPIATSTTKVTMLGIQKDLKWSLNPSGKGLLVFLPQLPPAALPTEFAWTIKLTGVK
To be noted: Bovine kidney, cited from earlier work; for inhibition %: at 1000 μM (per NI footnote).

Data set [9] deals with T6, Amyloglucosidase (Aspergillus niger, UniProt P69328).
T6 construct: purchased Sigma-Aldrich Chemical Co
Set-up: method as in PMID 21157573. To be noted: A. niger, cited from earlier work.

Data set [10] has as its target T7, α-L-Rhamnosidase (Penicillium decumbens, UniProt S7ZS15).
T7 sequence (S7ZS15 1-894): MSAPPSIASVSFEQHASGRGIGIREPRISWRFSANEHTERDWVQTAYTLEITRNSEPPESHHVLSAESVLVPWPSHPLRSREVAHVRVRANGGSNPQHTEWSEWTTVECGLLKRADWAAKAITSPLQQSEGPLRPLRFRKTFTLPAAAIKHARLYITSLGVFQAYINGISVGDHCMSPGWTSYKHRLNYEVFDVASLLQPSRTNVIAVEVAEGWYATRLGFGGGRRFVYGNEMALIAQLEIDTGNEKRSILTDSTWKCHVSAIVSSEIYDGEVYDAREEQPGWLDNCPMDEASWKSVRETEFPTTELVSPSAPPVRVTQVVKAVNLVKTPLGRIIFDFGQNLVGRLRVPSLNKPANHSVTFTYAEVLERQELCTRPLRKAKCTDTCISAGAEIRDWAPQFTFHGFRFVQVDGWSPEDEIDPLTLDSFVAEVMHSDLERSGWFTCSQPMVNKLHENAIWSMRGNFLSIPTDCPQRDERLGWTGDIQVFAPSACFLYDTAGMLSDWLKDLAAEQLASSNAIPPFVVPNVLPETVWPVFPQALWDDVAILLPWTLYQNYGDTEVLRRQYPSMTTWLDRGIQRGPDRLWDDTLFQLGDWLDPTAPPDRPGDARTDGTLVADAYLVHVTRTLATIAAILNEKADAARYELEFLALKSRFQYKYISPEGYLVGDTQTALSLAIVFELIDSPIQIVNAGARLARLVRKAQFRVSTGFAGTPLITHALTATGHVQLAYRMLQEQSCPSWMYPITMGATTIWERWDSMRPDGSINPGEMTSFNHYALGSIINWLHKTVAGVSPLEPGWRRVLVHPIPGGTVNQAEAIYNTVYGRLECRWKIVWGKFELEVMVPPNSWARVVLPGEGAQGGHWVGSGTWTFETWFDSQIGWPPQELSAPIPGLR
Conditions: at 1000 μM (per NI footnote), P. decumbens; cited from earlier work.

The target of data set [11] is T8, α-Mannosidase (Canavalia ensiformis, UniProt C0HJB3).
T8 construct: purchased Sigma-Aldrich Chemical Co
T8 sequence (C0HJB3 1-981): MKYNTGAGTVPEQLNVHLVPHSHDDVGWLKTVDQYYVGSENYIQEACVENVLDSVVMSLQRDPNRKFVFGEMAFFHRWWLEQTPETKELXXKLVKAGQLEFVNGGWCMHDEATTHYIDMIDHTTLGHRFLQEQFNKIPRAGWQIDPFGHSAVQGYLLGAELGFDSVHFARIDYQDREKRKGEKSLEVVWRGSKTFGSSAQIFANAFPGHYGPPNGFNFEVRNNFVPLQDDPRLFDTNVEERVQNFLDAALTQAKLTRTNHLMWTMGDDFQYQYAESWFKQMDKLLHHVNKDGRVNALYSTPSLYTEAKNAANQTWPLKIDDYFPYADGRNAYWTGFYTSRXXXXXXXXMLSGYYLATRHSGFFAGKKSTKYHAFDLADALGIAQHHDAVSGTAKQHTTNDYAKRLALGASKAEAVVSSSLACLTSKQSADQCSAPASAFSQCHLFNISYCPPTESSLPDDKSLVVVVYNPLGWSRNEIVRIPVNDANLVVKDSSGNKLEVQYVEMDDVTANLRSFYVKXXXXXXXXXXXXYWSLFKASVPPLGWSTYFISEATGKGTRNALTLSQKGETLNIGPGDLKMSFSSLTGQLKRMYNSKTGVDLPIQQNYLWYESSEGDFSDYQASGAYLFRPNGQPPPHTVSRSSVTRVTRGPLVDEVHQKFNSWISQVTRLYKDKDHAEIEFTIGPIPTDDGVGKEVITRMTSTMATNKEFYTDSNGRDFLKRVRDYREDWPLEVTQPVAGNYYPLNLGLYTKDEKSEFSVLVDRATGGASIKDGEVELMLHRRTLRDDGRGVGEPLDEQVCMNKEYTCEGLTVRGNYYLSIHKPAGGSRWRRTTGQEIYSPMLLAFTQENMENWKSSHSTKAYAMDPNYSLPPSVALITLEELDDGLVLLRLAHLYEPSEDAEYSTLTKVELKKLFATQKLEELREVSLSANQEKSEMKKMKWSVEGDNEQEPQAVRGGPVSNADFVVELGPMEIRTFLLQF
Conditions: Jack bean, cited from earlier work.

T4 sequence (Q42656 16-378): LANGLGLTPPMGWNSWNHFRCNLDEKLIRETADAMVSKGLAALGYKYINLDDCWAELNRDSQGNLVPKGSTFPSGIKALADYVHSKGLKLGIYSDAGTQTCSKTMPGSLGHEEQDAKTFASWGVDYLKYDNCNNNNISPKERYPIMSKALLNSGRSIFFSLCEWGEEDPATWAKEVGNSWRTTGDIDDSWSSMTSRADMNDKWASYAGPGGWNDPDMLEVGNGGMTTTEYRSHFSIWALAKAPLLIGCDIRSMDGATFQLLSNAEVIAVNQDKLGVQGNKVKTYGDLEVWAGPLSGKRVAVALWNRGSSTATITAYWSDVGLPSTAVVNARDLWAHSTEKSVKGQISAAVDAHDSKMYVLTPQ
T6 sequence (P69328 25-640): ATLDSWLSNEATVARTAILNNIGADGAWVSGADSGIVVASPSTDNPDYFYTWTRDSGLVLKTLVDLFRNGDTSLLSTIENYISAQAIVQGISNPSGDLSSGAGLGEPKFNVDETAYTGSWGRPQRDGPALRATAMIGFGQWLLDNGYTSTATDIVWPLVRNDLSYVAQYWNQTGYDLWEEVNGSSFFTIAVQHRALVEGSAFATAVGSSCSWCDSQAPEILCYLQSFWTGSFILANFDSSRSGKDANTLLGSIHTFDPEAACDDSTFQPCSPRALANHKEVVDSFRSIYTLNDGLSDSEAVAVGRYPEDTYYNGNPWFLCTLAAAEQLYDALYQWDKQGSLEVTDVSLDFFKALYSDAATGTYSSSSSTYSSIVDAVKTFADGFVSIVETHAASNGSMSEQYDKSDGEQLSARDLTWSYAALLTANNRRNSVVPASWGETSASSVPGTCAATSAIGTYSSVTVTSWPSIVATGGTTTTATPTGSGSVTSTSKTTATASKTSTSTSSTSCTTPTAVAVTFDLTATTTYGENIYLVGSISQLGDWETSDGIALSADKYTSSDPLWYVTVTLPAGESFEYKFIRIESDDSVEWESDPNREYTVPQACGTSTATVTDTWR
T2 sequence (Q653V7 34-885): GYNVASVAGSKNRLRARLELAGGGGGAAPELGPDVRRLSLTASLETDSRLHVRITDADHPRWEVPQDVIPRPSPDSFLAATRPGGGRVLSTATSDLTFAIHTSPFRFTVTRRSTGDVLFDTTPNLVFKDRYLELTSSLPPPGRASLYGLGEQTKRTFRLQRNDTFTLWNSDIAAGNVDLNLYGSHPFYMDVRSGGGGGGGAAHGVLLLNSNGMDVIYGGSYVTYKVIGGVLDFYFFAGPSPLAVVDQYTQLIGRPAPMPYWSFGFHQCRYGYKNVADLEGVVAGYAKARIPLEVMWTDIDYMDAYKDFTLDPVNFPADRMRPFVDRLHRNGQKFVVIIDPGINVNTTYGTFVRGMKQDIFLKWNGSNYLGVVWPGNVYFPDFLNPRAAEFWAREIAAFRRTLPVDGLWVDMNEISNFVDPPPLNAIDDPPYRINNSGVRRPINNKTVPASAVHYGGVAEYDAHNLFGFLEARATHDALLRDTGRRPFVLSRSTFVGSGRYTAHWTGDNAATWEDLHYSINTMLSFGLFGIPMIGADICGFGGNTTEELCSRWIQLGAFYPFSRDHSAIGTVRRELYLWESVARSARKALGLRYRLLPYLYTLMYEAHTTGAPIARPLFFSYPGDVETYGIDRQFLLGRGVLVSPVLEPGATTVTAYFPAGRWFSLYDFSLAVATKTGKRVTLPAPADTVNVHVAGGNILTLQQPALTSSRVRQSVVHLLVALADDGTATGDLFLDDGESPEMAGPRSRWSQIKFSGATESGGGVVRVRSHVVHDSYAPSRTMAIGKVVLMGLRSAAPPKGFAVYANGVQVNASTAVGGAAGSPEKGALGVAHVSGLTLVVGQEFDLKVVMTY
T1 sequence (P53341 whole entry): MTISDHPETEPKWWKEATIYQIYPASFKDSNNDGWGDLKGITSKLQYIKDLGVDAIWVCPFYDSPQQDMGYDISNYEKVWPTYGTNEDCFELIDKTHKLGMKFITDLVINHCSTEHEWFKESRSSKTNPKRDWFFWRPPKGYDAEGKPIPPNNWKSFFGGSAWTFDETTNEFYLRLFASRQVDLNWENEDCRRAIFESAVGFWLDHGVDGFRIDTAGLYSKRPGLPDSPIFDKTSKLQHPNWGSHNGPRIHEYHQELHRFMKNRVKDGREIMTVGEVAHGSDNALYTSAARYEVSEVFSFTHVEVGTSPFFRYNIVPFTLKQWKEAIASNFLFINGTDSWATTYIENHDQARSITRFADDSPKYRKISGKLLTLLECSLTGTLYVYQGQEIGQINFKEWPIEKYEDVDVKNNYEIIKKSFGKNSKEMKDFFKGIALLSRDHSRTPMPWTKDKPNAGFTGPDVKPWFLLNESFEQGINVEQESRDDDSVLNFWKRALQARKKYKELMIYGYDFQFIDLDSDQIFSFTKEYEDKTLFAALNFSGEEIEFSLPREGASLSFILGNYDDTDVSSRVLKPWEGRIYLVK

In the case of `OC[C@H]1NC[C@@H](O)[C@@H]1O` [DAB (1), 1,4-dideoxy-1,4-imino-D-arabinitol], the IC50 in [1] was 0.15 µM; in data set [2], 250 µM; in data set [3] it was 250 µM; in data set [4], 638 µM; in [5], above 1000 µM; in data set [6], above 1000 µM. Besides, the IC50 in data set [7] is above 1000 µM; in data set [8] it was above 1000 µM; in data set [9], 362 µM. Moreover, the inhibition % is given as 7% in data set [5]; 37% in [6]; 10% in data set [7]; 11% in data set [8]; 5% in data set [10].

As to `OC[C@@H]1NC[C@H](O)[C@H]1O` [LAB (ent-1), 1,4-dideoxy-1,4-imino-L-arabinitol], the IC50 in data set [1] was 70 µM; in data set [2], 3.2 µM; in data set [3], above 1000 µM; in data set [5] it was above 1000 µM; in data set [6] it was above 1000 µM; in data set [11], above 1000 µM. Also, the IC50 in data set [7], in [8] and in [9] was above 1000 µM each time. Also, the inhibition % is 13% in [4] (at 1000 μM (per NI footnote)); 2% in [5]; 16% in data set [6]; 0% in [11] (at 1000 μM (per NI footnote)); 1% in [7]; 0% in data set [8]. The inhibition % in data set [9] (at 1000 μM (per NI footnote)) is reported as 41%.
